# Reference: US10660877B2 (BRISTOL-MYERS SQUIBB COMPANY, priority 2016, dated 2020)
# Where two headings read alike, the source gives them in different places.
# Experiments:
# [1] = target: human TLR8 (Homo sapiens (Human), UniProt Q9NR97); experiment: TLR8 inhibition reporter assay (HEK-Blue cells, SEAP reporter, R848 stimulation);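 further: compounds tested from 0.05 nM to 50 µM, 22 h at 37 °C, SEAP measured with HEK-Blue Detection, inhibition relative to agonist plus DMSO versus a known inhibitor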
# human TLR8, sequence (Q9NR97 27-1041): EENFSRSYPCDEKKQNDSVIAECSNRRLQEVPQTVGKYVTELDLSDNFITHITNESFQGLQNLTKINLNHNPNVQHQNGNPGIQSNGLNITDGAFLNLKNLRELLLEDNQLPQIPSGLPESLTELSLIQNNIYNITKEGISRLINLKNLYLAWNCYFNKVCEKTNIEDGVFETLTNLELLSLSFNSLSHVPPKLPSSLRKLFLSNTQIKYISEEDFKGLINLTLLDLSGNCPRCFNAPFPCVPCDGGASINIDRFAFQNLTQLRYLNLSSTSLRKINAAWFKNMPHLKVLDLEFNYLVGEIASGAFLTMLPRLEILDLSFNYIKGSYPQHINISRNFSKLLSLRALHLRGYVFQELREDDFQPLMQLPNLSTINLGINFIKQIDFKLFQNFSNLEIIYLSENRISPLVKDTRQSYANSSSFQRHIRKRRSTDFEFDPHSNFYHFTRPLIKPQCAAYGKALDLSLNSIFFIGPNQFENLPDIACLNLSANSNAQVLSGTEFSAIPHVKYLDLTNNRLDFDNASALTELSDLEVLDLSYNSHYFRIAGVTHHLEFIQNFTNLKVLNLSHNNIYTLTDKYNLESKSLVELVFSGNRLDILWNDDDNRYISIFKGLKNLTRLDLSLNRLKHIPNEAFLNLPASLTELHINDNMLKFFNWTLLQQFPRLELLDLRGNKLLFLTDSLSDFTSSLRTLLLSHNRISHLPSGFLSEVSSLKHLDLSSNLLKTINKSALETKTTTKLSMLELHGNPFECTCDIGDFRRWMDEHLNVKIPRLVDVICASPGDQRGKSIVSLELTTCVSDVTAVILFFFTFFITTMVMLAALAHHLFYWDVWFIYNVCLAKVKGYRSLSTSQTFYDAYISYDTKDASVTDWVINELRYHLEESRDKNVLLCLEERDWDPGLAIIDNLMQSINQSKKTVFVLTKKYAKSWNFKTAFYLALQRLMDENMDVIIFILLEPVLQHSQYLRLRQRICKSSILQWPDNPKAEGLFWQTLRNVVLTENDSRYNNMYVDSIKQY
# [2] = target: human TLR9 (Homo sapiens (Human), UniProt Q9NR96); experiment: TLR9 inhibition reporter assay (HEK-Blue cells, SEAP reporter, ODN2006 stimulation);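 further: compounds tested over 0.05 nM to 50 µM, 22 h incubation, inhibition taken as SEAP signal drop from agonist plus DMSO wells toward a known inhibitor control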
# human TLR9, sequence (Q9NR96 26-1032): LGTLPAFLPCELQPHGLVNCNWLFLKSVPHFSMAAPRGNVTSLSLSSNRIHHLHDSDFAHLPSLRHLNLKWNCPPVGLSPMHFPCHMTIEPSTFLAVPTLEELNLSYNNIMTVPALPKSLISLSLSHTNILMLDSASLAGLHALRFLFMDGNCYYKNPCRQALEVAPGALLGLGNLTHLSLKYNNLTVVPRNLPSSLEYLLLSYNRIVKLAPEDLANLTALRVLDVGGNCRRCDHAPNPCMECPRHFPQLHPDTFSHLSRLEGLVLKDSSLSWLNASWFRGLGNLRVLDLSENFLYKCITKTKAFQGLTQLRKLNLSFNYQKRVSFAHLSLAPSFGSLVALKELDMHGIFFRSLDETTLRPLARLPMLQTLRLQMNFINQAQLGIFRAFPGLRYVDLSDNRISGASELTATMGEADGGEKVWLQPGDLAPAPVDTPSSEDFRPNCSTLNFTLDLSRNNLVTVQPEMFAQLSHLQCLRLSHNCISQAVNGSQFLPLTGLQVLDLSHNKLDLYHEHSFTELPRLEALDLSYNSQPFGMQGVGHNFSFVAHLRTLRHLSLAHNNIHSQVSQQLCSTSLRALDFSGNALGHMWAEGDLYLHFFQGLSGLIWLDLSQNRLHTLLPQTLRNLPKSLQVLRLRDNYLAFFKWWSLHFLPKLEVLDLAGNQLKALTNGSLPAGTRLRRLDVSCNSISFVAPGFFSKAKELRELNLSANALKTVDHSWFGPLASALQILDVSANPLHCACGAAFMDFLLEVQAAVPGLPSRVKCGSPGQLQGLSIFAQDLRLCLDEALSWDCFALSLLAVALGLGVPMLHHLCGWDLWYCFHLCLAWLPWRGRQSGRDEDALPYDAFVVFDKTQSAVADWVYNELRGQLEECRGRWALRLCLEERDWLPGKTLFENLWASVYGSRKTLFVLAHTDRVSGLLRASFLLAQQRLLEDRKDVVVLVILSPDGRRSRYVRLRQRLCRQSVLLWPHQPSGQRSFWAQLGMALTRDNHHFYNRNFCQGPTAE
# [3] = target: human TLR7 (Homo sapiens (Human), UniProt Q9NYK1); experiment: TLR7 inhibition reporter assay (HEK-Blue cells, SEAP reporter, gardiquimod stimulation); assay type: cell-based; details: HEK-Blue cells overexpressing human TLR7, gardiquimod 7.5 μM
# human TLR7, sequence (Q9NYK1 27-1049): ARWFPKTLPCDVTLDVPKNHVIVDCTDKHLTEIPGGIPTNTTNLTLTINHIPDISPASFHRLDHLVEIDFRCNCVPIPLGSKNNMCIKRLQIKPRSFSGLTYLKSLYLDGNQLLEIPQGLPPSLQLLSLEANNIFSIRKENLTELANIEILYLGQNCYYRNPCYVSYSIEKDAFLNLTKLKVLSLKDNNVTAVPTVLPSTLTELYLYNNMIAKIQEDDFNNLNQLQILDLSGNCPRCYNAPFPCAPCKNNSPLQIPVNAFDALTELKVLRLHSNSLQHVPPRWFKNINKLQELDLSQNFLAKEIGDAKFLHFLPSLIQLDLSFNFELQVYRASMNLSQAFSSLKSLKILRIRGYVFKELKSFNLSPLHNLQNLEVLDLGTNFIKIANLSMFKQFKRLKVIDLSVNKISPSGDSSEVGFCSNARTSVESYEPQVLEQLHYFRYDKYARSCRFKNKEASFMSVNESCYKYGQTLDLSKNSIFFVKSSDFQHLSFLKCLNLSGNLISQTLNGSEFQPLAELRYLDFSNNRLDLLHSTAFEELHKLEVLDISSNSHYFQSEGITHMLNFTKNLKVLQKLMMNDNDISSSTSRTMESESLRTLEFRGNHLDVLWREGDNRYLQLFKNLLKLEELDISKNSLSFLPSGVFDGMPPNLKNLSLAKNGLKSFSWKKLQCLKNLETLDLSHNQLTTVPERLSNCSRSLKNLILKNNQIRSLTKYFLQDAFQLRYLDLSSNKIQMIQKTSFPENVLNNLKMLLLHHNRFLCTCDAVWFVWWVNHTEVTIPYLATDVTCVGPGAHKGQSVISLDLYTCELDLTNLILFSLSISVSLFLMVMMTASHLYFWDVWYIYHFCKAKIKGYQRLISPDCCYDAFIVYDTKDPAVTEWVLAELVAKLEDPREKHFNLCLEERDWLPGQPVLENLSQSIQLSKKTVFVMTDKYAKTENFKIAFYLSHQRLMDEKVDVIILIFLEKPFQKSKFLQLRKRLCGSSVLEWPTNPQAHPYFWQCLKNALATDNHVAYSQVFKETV
# [4] = read-out: TLR8 IC50, HEK-Blue cells overexpressing human TLR8, R848 15.9 μM
# [5] = read-out: TLR9 IC50, HEK-Blue cells overexpressing human TLR9, ODN2006 5 nM
# [6] = TLR8 IC50, HEK-Blue cells overexpressing human TLR8, R848 15.9 μM
# [7] = TLR9 IC50, HEK-Blue cells overexpressing human TLR9, ODN2006 5 nM
"IC50 [1, 4]","IC50 [2, 5]",IC50 [3],"IC50 [1, 6]","IC50 [2, 7]",Compound
6.5 nM,648 nM,3.1 nM,,,"Cc1cc(-c2[nH]c3ccc(C4CCN(CC(=O)NC5CC5)CC4)cc3c2C(C)C)cc(C)n1 [Example 212, N-cyclopropyl-2-(4-(2-(2,6-dimethylpyridin-4-yl)-3-isopropyl-1H-indol-5-yl)piperidin-1-yl)acetamide]"
13.8 nM,331 nM,7.1 nM,,,"Cc1cc(-c2[nH]c3ccc(C4CCN(CC(=O)NC5CCC5)CC4)cc3c2C(C)C)cc(C)n1 [Example 213, N-cyclobutyl-2-(4-(2-(2,6-dimethylpyridin-4-yl)-3-isopropyl-1H-indol-5-yl)piperidin-1-yl) acetamide]"
12.8 nM,1220 nM,6.2 nM,,,"Cc1cc(-c2[nH]c3ccc(C4CCN(CC(=O)NCC(F)(F)F)CC4)cc3c2C(C)C)cc(C)n1 [Example 214, 2-(4-(2-(2,6-dimethylpyridin-4-yl)-3-isopropyl-1H-indol-5-yl)piperidin-1-yl)-N-(2,2,2-trifluoroethyl)acetamide]"
6 nM,680 nM,4.9 nM,,,"Cc1cc(-c2[nH]c3ccc(C4CCN(CC(=O)N5CC(F)(F)C5)CC4)cc3c2C(C)C)cc(C)n1 [Example 215, 1-(3,3-difluoroazetidin-1-yl)-2-(4-(2-(2,6-dimethylpyridin-4-yl)-3-isopropyl-1H-indol-5-yl)piperidin-1-yl)ethan-1-one]"
,,2.8 nM,7 nM,315 nM,"Cc1cc(-c2[nH]c3ccc(C4CCN(CC(=O)N5CCC(F)(F)C5)CC4)cc3c2C(C)C)cc(C)n1 [Example 216, 1-(3,3-difluoropyrrolidin-1-yl)-2-(4-(2-(2,6-dimethylpyridin-4-yl)-3-isopropyl-1H-indol-5-yl)piperidin-1-yl)ethan-1-one]"
25.8 nM,1020 nM,6.2 nM,,,"Cc1cc(-c2[nH]c3ccc(C4CCN(CC(=O)NC(C)(C)C)CC4)cc3c2C(C)C)cc(C)n1 [Example 217, N-(tert-butyl)-2-(4-(2-(2,6-dimethylpyridin-4-yl)-3-isopropyl-1H-indol-5-yl)piperidin-1-yl)acetamide]"
10.5 nM,949 nM,4.9 nM,,,"Cc1cc(-c2[nH]c3ccc(C4CCN(CC(=O)NC(C)C)CC4)cc3c2C(C)C)cc(C)n1 [Example 218, 2-(4-(2-(2,6-dimethylpyridin-4-yl)-3-isopropyl-1H-indol-5-yl)piperidin-1-yl)-N-isopropylacetamide]"
,,22.5 nM,47.7 nM,2250 nM,"Cc1cc(-c2[nH]c3ccc(C4CCN(CC(=O)NCC(C)(C)C)CC4)cc3c2C(C)C)cc(C)n1 [Example 219, 2-(4-(2-(2,6-dimethylpyridin-4-yl)-3-isopropyl-1H-indol-5-yl)piperidin-1-yl)-N-neopentylacetamide]"
36 nM,1300 nM,13.9 nM,,,"CCC(CC)NC(=O)CN1CCC(c2ccc3[nH]c(-c4cc(C)nc(C)c4)c(C(C)C)c3c2)CC1 [Example 220, 2-(4-(2-(2,6-dimethylpyridin-4-yl)-3-isopropyl-1H-indol-5-yl)piperidin-1-yl)-N-(pentan-3-yl)acetamide]"
17.2 nM,2010 nM,6.8 nM,,,"Cc1cc(-c2[nH]c3ccc(C4CCN(CC(=O)NCC(C)C)CC4)cc3c2C(C)C)cc(C)n1 [Example 221, 2-(4-(2-(2,6-dimethylpyridin-4-yl)-3-isopropyl-1H-indol-5-yl)piperidin-1-yl)-N-isobutylacetamide]"
15.9 nM,2240 nM,2.7 nM,,,"Cc1cc(-c2[nH]c3ccc(C4CCN(CC(=O)NCCO)CC4)cc3c2C(C)C)cc(C)n1 [Example 222, 2-(4-(2-(2,6-dimethylpyridin-4-yl)-3-isopropyl-1H-indol-5-yl)piperidin-1-yl)-N-(2-hydroxyethyl)acetamide]"
10.7 nM,1160 nM,3.7 nM,,,"Cc1cc(-c2[nH]c3ccc(C4CCN(CC(=O)NCC5CC5)CC4)cc3c2C(C)C)cc(C)n1 [Example 223, N-(cyclopropylmethyl)-2-(4-(2-(2,6-dimethylpyridin-4-yl)-3-isopropyl-1H-indol-5-yl)piperidin-1-yl)acetamide]"
820 nM,4130 nM,286 nM,,,"Cc1cc(-c2[nH]c3ccc(C4CCN(CC(=O)NC56CC7CC(CC(C7)C5)C6)CC4)cc3c2C(C)C)cc(C)n1 [Example 224, N-(adamantan-1-yl)-2-(4-(2-(2,6-dimethylpyridin-4-yl)-3-isopropyl-1H-indol-5-yl)piperidin-1-yl)acetamide]"
26.8 nM,651 nM,11.6 nM,,,"Cc1cc(-c2[nH]c3ccc(C4CCN(CC(=O)NC56C[C@@H]7C[C@@H](CC(O)(C7)C5)C6)CC4)cc3c2C(C)C)cc(C)n1 [Example 225, 2-(4-(2-(2,6-dimethylpyridin-4-yl)-3-isopropyl-1H-indol-5-yl)piperidin-1-yl)-N-((1r,3 s,5R,7S)-3-hydroxyadamantan-1-yl)acetamide]"
12.4 nM,759 nM,5.4 nM,,,"COC1CN(C(=O)CN2CCC(c3ccc4[nH]c(-c5cc(C)nc(C)c5)c(C(C)C)c4c3)CC2)C1 [Example 226, 2-(4-(2-(2,6-dimethylpyridin-4-yl)-3-isopropyl-1H-indol-5-yl)piperidin-1-yl)-1-(3-methoxyazetidin-1-yl)ethan-1-one]"
9.1 nM,1500 nM,3.8 nM,,,"Cc1cc(-c2[nH]c3ccc(C4CCN(CC(=O)N5CCC5)CC4)cc3c2C(C)C)cc(C)n1 [Example 227, 1-(azetidin-1-yl)-2-(4-(2-(2,6-dimethylpyridin-4-yl)-3-isopropyl-1H-indol-5-yl)piperidin-1-yl)ethan-1-one]"
28.2 nM,1110 nM,11.5 nM,,,"CCN(CC)C(=O)CN1CCC(c2ccc3[nH]c(-c4cc(C)nc(C)c4)c(C(C)C)c3c2)CC1 [Example 228, 2-(4-(2-(2,6-dimethylpyridin-4-yl)-3-isopropyl-1H-indol-5-yl)piperidin-1-yl)-N,N-diethylacetamide]"
,,6.4 nM,7.1 nM,165 nM,"Cc1cc(-c2[nH]c3ccc(C4CCN(CC(=O)N5CC(O)C5)CC4)cc3c2C(C)C)cc(C)n1 [Example 229, 2-(4-(2-(2,6-dimethylpyridin-4-yl)-3-isopropyl-1H-indol-5-yl)piperidin-1-yl)-1-(3-hydroxyazetidin-1-yl)ethan-1-one]"
17 nM,74 nM,4 nM,,,"Cc1cc(-c2[nH]c3ccc(C4CCN(CC(=O)N5CCC(O)CC5)CC4)cc3c2C(C)C)cc(C)n1 [Example 230, 2-(4-(2-(2,6-dimethylpyridin-4-yl)-3-isopropyl-1H-indol-5-yl)piperidin-1-yl)-1-(4-hydroxypiperidin-1-yl)ethan-1-one]"
10.1 nM,1130 nM,8.6 nM,,,"COCCNC(=O)CN1CCC(c2ccc3[nH]c(-c4cc(C)nc(C)c4)c(C(C)C)c3c2)CC1 [Example 231, 2-(4-(2-(2,6-dimethylpyridin-4-yl)-3-isopropyl-1H-indol-5-yl)piperidin-1-yl)-N-(2-methoxyethyl)acetamide]"
